ChEMBL document CHEMBL1136185, “Linearized and truncated microcystin analogues as inhibitors of protein phosphatases 1 and 2A” (Bioorg Med Chem Lett, 2003)

Target: T1, Serine-threonine protein phosphatase 2A regulatory subunit (Gallus gallus, UniProt Q8AWE3)
T1 sequence (Q8AWE3 whole entry): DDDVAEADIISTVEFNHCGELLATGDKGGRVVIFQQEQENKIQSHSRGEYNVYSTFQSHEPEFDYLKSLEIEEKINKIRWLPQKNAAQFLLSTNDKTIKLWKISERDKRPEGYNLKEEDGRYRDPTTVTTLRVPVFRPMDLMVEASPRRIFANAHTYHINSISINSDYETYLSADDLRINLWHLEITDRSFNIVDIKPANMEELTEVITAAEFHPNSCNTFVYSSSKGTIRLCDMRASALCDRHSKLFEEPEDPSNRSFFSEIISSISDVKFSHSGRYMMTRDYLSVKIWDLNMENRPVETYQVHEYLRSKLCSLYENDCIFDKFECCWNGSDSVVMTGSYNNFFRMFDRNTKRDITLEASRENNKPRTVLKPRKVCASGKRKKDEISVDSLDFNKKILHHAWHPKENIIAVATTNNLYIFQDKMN
Assay: Inhibitory concentration required against protein phosphatase 2A using pNPP assay

CO[C@@H](Cc1ccccc1)[C@@H](C)/C=C(C)/C=C/[C@H](NC(C)=O)[C@H](C)C(=O)N[C@H](CCC(=O)N(C)CC(=O)N[C@H](C)C(=O)O)C(=O)O
IC50: 135 µM

C=C(C(=O)N[C@H](C)C(=O)N[C@@H](CC(C)C)C(=O)O)N(C)C(=O)CC[C@@H](NC(=O)[C@@H](C)[C@H](/C=C/C(C)=C/[C@H](C)[C@H](Cc1ccccc1)OC)NC(C)=O)C(=O)O
IC50: 16 µM

CO[C@@H](Cc1ccccc1)[C@@H](C)/C=C(C)/C=C/[C@H](NC(C)=O)[C@H](C)C(=O)N[C@H](CCC(=O)N(C)CC(=O)N[C@H](C)C(=O)N[C@@H](CC(C)C)C(=O)O)C(=O)O
IC50: 17 µM

COC(=O)[C@@H](CCC(=O)N(C)C)NC(=O)[C@@H](C)[C@H](/C=C/C(C)=C/[C@H](C)[C@H](Cc1ccccc1)OC)NC(C)=O
IC50: > 100 µM

CO[C@@H](Cc1ccccc1)[C@@H](C)/C=C(C)/C=C/[C@H](NC(C)=O)[C@H](C)C(=O)N[C@H](CCC(=O)N(C)C)C(=O)O
IC50: 20 µM

CO[C@@H](Cc1ccccc1)[C@@H](C)/C=C(C)/C=C/[C@H](N)[C@H](C)C(=O)N[C@H](CCC(=O)N(C)CC(=O)N[C@H](C)C(=O)O)C(=O)O
IC50: 270 µM
